According to patent US10047059B2, “Substituted quinoxalines for inhibiting kinase activity” (NEUPHARMA, INC., priority 2012, dated 2018):

Assays:
[1] = target: T1, BRAF V600E (Homo sapiens, UniProt P15056, V600E); assay: Z'-LYTE kinase inhibition assay against BRAF V600E; assay type: biochemical; conditions: Z'-LYTE method
T1 construct: purchased Invitrogen
Procedure: (§1) Inhibitory activities Inhibitory activities of compounds against BRAF, and BRAF V600E were measured by Invitrogen using Z′-LYTE® Method as briefly described in the following. 4× Test compounds are dissolved in 1% DMSO. […] ATP solutions are diluted to a 4×ATP working concentration in Kinase Buffer (50 mM HEPES pH 7.5, 0.01% BRIJ-35, 10 mM MgCl2, 1 mM EGTA). Reaction started by 30-second shaking of mixture consisting of 2.5 μL 4× test compound, […] and 2.5 μL 4×ATP Solution on Bar-coded Corning, low volume NBS, black 384-well plate (Corning Cat. #3676). Then the mixture was incubated for 60-minute at room temperature for the kinase reaction, followed by addition of 5 μL of a 1:1024 dilution of development reagent A and 30-second plate shake. The mixture was then incubated for another 60-minute at room temperature for development reaction. Fluorescence was read by plate reader. IC50 was calculated by plotting the concentration of compound vs the percentage of inhibition in treated wells using GraphPad Prism 5.
(§2) Table 2 and 3 show % inhibition at 1 μM of several compounds of the invention against BRAF and BRAF V600E, respectively, using Z′-LYTE® method.
The scale utilized in Table 4 is as follows: +++ less than 100 nM; and ++ greater than 100 nM.

[2] = target: T2, BRAF (Homo sapiens, UniProt P15056); assay: Z'-LYTE kinase inhibition assay against BRAF; assay type: biochemical; conditions: Z'-LYTE method
T2 construct: purchased Invitrogen
T2 sequence (P15056 whole entry): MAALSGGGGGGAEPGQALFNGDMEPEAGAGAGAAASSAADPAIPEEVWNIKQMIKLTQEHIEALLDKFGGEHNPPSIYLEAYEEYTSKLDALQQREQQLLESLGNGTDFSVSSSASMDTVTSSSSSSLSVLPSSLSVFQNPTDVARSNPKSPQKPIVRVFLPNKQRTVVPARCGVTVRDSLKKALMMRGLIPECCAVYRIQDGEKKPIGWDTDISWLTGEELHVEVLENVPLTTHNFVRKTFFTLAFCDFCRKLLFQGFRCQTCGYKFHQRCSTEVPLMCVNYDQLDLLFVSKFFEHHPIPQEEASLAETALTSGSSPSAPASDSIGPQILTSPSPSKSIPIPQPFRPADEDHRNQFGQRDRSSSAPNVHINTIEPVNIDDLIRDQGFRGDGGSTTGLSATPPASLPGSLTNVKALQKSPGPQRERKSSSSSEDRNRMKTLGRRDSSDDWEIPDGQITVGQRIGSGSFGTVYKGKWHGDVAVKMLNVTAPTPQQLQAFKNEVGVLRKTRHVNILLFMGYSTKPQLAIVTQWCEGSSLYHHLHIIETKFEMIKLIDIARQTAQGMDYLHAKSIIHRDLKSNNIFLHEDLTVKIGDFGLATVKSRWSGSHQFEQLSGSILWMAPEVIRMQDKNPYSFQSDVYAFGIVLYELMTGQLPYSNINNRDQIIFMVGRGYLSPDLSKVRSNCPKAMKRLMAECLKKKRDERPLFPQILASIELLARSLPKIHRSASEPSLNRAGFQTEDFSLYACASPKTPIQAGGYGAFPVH
Procedure: as §1, §2

[3] = system: A375 cells; assay: Inhibition of cancer cell growth, MTT or MTS assay, A375; assay type: cell-based; conditions: Homo sapiens, A-375, 72 h incubation
Procedure: (§3) Inhibition of cell growth by compounds was measured using MTT or MTS assay. Tumor cell lines were purchased from ATCC (American Type Culture Collection, Manassas, Va.). All cell lines were maintained in RPMI 1640 (Hyclone) supplemented with 10% fetal bovine serum (FBS, Hyclone), glutamine (2 mM, Hyclone), and antibiotics (penicillin 100 U/mL and streptomycin 50 μg/mL) at 37° C. in a humidified atmosphere of 5% CO2 in air. Taxol (as a positive control, Sigma) and compounds were dissolved in DMSO (Sigma), and the final concentration of DMSO in the medium was 1%. Tumor cells were plated in 96-well plates at densities of about 2000 (A375) or 4000 (A549 and Colo205) cells/well of a 96-well plate and allowed to adhere/grow for 24 h. They were then treated with various concentrations of drug and incubated for 72 h. For MTT method, medium was then removed by inverting and tapping the plates. 100 μL of MTT (0.5 mg/ml) was added to each well followed by an incubated at 37° C. for 4 h. MTT was then removed and 200 μL of DMSO was added to each well, and the ODs at 570 nm were measured after a 5 second shaking cycle in a 96-well spectrophotometer. For MTS method, 20 μL MTS (CellTiter 96 Aqueous One Solution, Promega) was added to each well followed by an incubated at 37° C. for 2-4 h, solutions were then directly put in a 96-well spectrophotometer, and the ODs at 490 nm were measured.
(§4) All concentrations of compounds were tested in triplicate and controls were averaged over 4 wells. IC50 was calculated by plotting the concentration of compound vs the percentage of inhibition in treated wells using GraphPad Prism 5. […] The scale utilized in Tables 7-9 is as follows: +++ less than 1000 nM; ++ between 1000 nM and 5000 nM; and + greater than 5000 nM. The scale utilized in […]

[4] = system: A549 cells; assay: Inhibition of cancer cell growth, MTT or MTS assay, A549; assay type: cell-based; conditions: Homo sapiens, 72 h incubation
Procedure: as §3, §4

[5] = target: T3, KDR (VEGFR2) (Homo sapiens, UniProt P35968); assay: Z'-LYTE kinase inhibition assay against KDR; assay type: biochemical; conditions: Z'-LYTE method
T3 construct: purchased Invitrogen
T3 sequence (P35968 20-1356): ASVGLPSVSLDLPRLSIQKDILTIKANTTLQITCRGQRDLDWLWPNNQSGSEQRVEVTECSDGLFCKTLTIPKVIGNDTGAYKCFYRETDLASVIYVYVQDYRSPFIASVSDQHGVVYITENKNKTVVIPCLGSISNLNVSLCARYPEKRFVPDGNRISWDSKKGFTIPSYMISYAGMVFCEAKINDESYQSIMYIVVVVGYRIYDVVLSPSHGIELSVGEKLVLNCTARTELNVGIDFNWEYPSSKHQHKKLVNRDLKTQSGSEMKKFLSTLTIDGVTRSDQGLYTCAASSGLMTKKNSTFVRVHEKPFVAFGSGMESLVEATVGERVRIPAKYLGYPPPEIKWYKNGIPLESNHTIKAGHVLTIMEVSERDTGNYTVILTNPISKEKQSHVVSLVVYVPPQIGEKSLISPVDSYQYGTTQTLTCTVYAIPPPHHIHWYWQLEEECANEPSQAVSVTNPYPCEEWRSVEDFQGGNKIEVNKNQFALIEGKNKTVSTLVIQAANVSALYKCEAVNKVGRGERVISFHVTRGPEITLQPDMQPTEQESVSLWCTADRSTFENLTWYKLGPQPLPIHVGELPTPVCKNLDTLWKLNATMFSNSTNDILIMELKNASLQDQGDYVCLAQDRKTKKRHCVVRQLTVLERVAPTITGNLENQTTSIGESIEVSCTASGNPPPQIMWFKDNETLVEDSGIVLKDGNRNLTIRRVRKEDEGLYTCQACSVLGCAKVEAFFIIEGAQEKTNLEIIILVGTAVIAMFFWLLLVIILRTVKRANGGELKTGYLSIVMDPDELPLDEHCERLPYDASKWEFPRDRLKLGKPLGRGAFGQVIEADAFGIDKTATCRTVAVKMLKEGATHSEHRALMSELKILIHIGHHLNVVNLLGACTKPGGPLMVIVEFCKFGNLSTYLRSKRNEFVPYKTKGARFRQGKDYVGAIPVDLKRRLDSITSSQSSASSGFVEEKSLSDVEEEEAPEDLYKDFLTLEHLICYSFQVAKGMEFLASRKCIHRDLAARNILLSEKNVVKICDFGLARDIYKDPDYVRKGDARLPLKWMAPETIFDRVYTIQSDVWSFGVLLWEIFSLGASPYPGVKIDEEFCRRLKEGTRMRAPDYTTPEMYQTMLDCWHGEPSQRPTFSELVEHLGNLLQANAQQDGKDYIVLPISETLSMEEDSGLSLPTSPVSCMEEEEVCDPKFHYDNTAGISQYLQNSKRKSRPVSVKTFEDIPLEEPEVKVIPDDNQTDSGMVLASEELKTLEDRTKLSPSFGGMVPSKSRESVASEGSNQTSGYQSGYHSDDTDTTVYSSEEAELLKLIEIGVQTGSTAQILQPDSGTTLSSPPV
Procedure: Inhibitory activities of compounds against KDR (VEGFR2) were also measured by Invitrogen using Z′-LYTE® Method as described above with the following modification. The 2×KDR (VEGFR2)/Tyr 01 mixture is prepared in 50 mM HEPES pH 7.5, 0.01% BRIJ-35, 10 mM MgCl2, 1 mM EGTA. The final 10 μL Kinase Reaction consists of 0.5-11.7 ng KDR (VEGFR2) and 2 μM Tyr 01 in 50 mM HEPES pH 7.5, 0.01% BRIJ-35, 10 mM MgCl2, 1 mM EGTA. After the 1 hour Kinase Reaction incubation, 5 μL of a 1:256 dilution of Development Reagent B is added.
The scale utilized in Table 6 is as follows: +++ less than 100 nM; and ++ greater than 100 nM

[6] = system: Colo205 cells; assay: Inhibition of cancer cell growth, MTT or MTS assay, Colo205; assay type: cell-based; conditions: Homo sapiens, COLO 205, 72 h incubation
Procedure: as §3, §4

T1 sequence (P15056 whole entry V600E): as the sequence (P15056 whole entry) above, with V600E counted along it

Compound: O=C(Nc1ccc(F)cc1)Nc1ccc(C(=O)c2ccc3ncc(N4CCOCC4)nc3c2)cc1 [Compound C05, 1-(4-fluorophenyl)-3-(4-(3-morpholinoquinoxaline-6-carbonyl)phenyl)urea]
- inhibition at 1 µM [1]: < 70%
- inhibition at 1 µM [2]: < 70%
- IC50 [3]: > 5000 nM
- IC50 [4]: > 5000 nM
- inhibition at 1 µM [5]: < 70%

Compound: N#Cc1ccc(CC(=O)Nc2ccc(C(=O)c3ccc4ncc(N5CCNCC5)nc4c3)c(F)c2)cc1C(F)(F)F [Compound C26, 2-(4-cyano-3-(trifluoromethyl)phenyl)-N-(3-fluoro-4-(3-(piperazin-1-yl)quinoxaline-6-carbonyl)phenyl)acetamide]
- inhibition at 1 µM [1]: > 89%
- inhibition at 1 µM [2]: < 70%
- IC50 [3]: < 1000 nM
- IC50 [4]: < 1000 nM
- inhibition at 1 µM [5]: > 89%
- IC50 [5]: < 100 nM

Compound: O=C(Nc1ccc(Cl)cc1)Nc1ccc(C(=O)c2ccc3ncc(N4CCOCC4)nc3c2)cc1 [Compound C04, 1-(4-chlorophenyl)-3-(4-(3-morpholinoquinoxaline-6-carbonyl)phenyl)urea]
- inhibition at 1 µM [1]: < 70%
- inhibition at 1 µM [2]: < 70%
- IC50 [4]: 1000 to 5000 nM
- inhibition at 1 µM [5]: < 70%

Compound: O=C(Nc1ccc(C(=O)c2ccc3ncc(N4CCNCC4)nc3c2)cc1)Nc1ccc(C(F)(F)F)cc1 [Compound C13, 1-(4-(3-(piperazin-1-yl)quinoxaline-6-carbonyl)phenyl)-3-(4-(trifluoromethyl)phenyl)urea]
- inhibition at 1 µM [1]: > 89%
- inhibition at 1 µM [2]: < 70%
- IC50 [3]: < 1000 nM
- IC50 [4]: 1000 to 5000 nM
- inhibition at 1 µM [5]: < 70%

Compound: O=C(Nc1ccc(C(=O)c2ccc3ncc(N4CCNCC4)nc3c2)cc1)Nc1cccc(Cl)c1 [Compound C11, 1-(3-chlorophenyl)-3-(4-(3-(piperazin-1-yl)quinoxaline-6-carbonyl)phenyl)urea]
- inhibition at 1 µM [1]: > 89%
- inhibition at 1 µM [2]: 70 to 89%
- IC50 [6]: < 1000 nM
- IC50 [3]: 1000 to 5000 nM
- IC50 [4]: 1000 to 5000 nM
- inhibition at 1 µM [5]: 70 to 89%
- IC50 [5]: > 100 nM

Compound: O=C(Nc1ccc(C(=O)c2ccc3ncc(N4CCNCC4)nc3c2)cc1)Nc1cccc(C(F)(F)F)c1 [Compound C17, 1-(4-(3-(piperazin-1-yl)quinoxaline-6-carbonyl)phenyl)-3-(3-(trifluoromethyl)phenyl)urea]
- inhibition at 1 µM [1]: > 89%
- IC50 [1]: < 100 nM
- inhibition at 1 µM [2]: < 70%
- IC50 [6]: 1000 to 5000 nM
- IC50 [3]: < 1000 nM
- IC50 [4]: < 1000 nM
- inhibition at 1 µM [5]: 70 to 89%
- IC50 [5]: < 100 nM

Compound: O=C(Nc1ccc(Cl)cc1)Nc1ccc(C(=O)c2ccc3ncc(N4CCNCC4)nc3c2)cc1 [Compound C09, 1-(4-chlorophenyl)-3-(4-(3-(piperazin-1-yl)quinoxaline-6-carbonyl)phenyl)urea]
- inhibition at 1 µM [1]: > 89%
- inhibition at 1 µM [2]: 70 to 89%
- IC50 [6]: 1000 to 5000 nM
- IC50 [3]: 1000 to 5000 nM
- IC50 [4]: 1000 to 5000 nM
- inhibition at 1 µM [5]: < 70%

Compound: O=C(Nc1ccc(C(=O)c2ccc3nccnc3c2)cc1)Nc1cccc(F)c1 [Compound C02, 1-(3-fluorophenyl)-3-(4-(quinoxaline-6-carbonyl)phenyl)urea]
- inhibition at 1 µM [1]: < 70%
- inhibition at 1 µM [2]: < 70%
- IC50 [3]: 1000 to 5000 nM
- IC50 [4]: 1000 to 5000 nM
- inhibition at 1 µM [5]: < 70%

Compound: O=C(Nc1ccc(C(=O)c2ccc3ncc(N4CCNCC4)nc3c2)cc1)Nc1ccc(Cl)c(C(F)(F)F)c1 [Compound C12, 1-(4-chloro-3-(trifluoromethyl)phenyl)-3-(4-(3-(piperazin-1-yl)quinoxaline-6-carbonyl)phenyl)urea]
- inhibition at 1 µM [1]: 70 to 89%
- inhibition at 1 µM [2]: < 70%
- IC50 [6]: 1000 to 5000 nM
- IC50 [3]: < 1000 nM
- IC50 [4]: < 1000 nM
- inhibition at 1 µM [5]: 70 to 89%
- IC50 [5]: > 100 nM

Compound: O=C(Nc1cccc(C(F)(F)F)c1)Nc1ccc(C(=O)c2ccc3ncc(N4CCOCC4)nc3c2)c(F)c1 [Compound C24, 1-(3-fluoro-4-(3-morpholinoquinoxaline-6-carbonyl)phenyl)-3-(3-(trifluoromethyl)phenyl)urea]
- inhibition at 1 µM [1]: < 70%
- IC50 [3]: 1000 to 5000 nM
- IC50 [4]: 1000 to 5000 nM
- inhibition at 1 µM [5]: 70 to 89%

Compound: O=C(Nc1ccc(C(=O)c2ccc3ncc(N4CCNCC4)nc3c2)cc1)Nc1cccc(F)c1 [Compound C19, 1-(3-fluorophenyl)-3-(4-(3-(piperazin-1-yl)quinoxaline-6-carbonyl)phenyl)urea]
- inhibition at 1 µM [1]: > 89%
- inhibition at 1 µM [2]: < 70%
- IC50 [3]: 1000 to 5000 nM
- IC50 [4]: 1000 to 5000 nM
- inhibition at 1 µM [5]: < 70%

Compound: O=C(Nc1ccc(C(=O)c2ccc3ncc(C4CCNCC4)nc3c2)cc1)Nc1ccc(F)c(C(F)(F)F)c1 [Compound C28, 1-(4-fluoro-3-(trifluoromethyl)phenyl)-3-(4-(3-(piperidin-4-yl)quinoxaline-6-carbonyl)phenyl)urea]
- inhibition at 1 µM [1]: 70 to 89%
- inhibition at 1 µM [2]: < 70%
- IC50 [3]: 1000 to 5000 nM
- IC50 [4]: > 5000 nM
- inhibition at 1 µM [5]: < 70%

Compound: O=C(Nc1cccc(F)c1)Nc1ccc(C(=O)c2ccc3ncc(N4CCNCC4)nc3c2)c(F)c1 [Compound C20, 1-(3-fluoro-4-(3-(piperazin-1-yl)quinoxaline-6-carbonyl)phenyl)-3-(3-fluorophenyl)urea]
- inhibition at 1 µM [1]: > 89%
- inhibition at 1 µM [2]: < 70%
- IC50 [3]: 1000 to 5000 nM
- IC50 [4]: > 5000 nM
- inhibition at 1 µM [5]: < 70%

Compound: O=C(Nc1ccc(C(=O)c2ccc3ncc(N4CCOCC4)nc3c2)cc1)Nc1cccc(Cl)c1 [Compound C03, 1-(3-chlorophenyl)-3-(4-(3-morpholinoquinoxaline-6-carbonyl)phenyl)urea]
- inhibition at 1 µM [1]: < 70%
- inhibition at 1 µM [2]: < 70%
- IC50 [3]: 1000 to 5000 nM
- IC50 [4]: 1000 to 5000 nM
- inhibition at 1 µM [5]: < 70%

Compound: O=C(Nc1ccc(C(=O)c2ccc3ncc(N4CCOCC4)nc3c2)cc1)Nc1ccc(C(F)(F)F)cc1 [Compound C08, 1-(4-(3-morpholinoquinoxaline-6-carbonyl)phenyl)-3-(4-(trifluoromethyl)phenyl)urea]
- inhibition at 1 µM [1]: < 70%
- IC50 [3]: < 1000 nM
- IC50 [4]: 1000 to 5000 nM
- inhibition at 1 µM [5]: < 70%

Compound: N#Cc1cnc2ccc(C(=O)c3ccc(NC(=O)Nc4cccc(C(F)(F)F)c4)cc3F)cc2n1 [Compound C29, 1-(4-(3-cyanoquinoxaline-6-carbonyl)-3-fluorophenyl)-3-(3-(trifluoromethyl)phenyl)urea]
- inhibition at 1 µM [1]: < 70%
- IC50 [3]: 1000 to 5000 nM
- IC50 [4]: 1000 to 5000 nM
- inhibition at 1 µM [5]: < 70%

Compound: O=C(Nc1ccc(F)cc1)Nc1ccc(C(=O)c2ccc3ncc(N4CCNCC4)nc3c2)cc1 [Compound C10, 1-(4-fluorophenyl)-3-(4-(3-(piperazin-1-yl)quinoxaline-6-carbonyl)phenyl)urea]
- inhibition at 1 µM [1]: > 89%
- inhibition at 1 µM [2]: < 70%
- IC50 [3]: 1000 to 5000 nM
- IC50 [4]: 1000 to 5000 nM
- inhibition at 1 µM [5]: < 70%
